Experiments:
[1] = tested on: Staphylococcus aureus ATCC #6538; assay: Efficacy (log kill) against Staphylococcus aureus, 96-well assay block; format: cell-based
Description: (§1) The cationic polymers are pH adjusted in the range of 6-7.5. It should be noted that the Ecopol polymers require an acidic environment for complete dissolution. Once the polymer is dissolved, NaOH can be used to bring the pH to the desired range.
(§2) The efficacy of the antimicrobial combinations against Staphylococcus aureus ATCC #6538 and Pseudomonas aeruginosa ATCC #10145 is measured. Testing is done in 96-well 1.5 ml polypropylene assay blocks using 96-well polypropylene sealing mats for covering the samples during incubation. The individual wells in the 96-well assay block are identified as follows: 12 columns numbered 1-12 across the top row of wells on the block, and 8 rows lettered A-H on the first column of the block. Columns 1 and 2 are reserved to test the activity of the biocide in buffer (pH 7.2) in the absence of the cationic polymer. Columns 11 and 12 are always reserved as control, to verify growth of the microorganism in the absence of the biocide. The preparation of the assay blocks involves the following steps in chronological order:
(§3) 1. Preparation of the biocide solution in an appropriate solvent at a concentration equal to 10 times the final concentration desired in row A; 2. Addition of predetermined amount of the stock biocide solution to each well in row A; 3. Addition of a predetermined amount of the solvent to rows B-H and wells 11A and 12A; 4. Serial dilution of the biocide, by transferring a predetermined amount of the solution from row A to row B, mixing, and repeating the transfer down all the rows. After the mixing step in row H, the transferring amount is taken out and disposed of; 5. Inoculation of the buffer and polymer solutions with the test organism. For bacteria, a 24-hour culture is used. Following the incubation period, the organism concentration in the medium is determined by reading the OD at 620 nm. This culture is used to inoculate the buffer and the polymer solution to a bacterial concentration of 1E6 cfu/ml. Fungal challenges are performed with fungal spores isolated from inoculated SDA slants. The spores are collected by swiping the slant with a sterile cotton swab and re-suspended in tryptic soy broth. Tween 80 is added to aid in spore separation and the suspension was homogenized. The spore concentration is obtained by use of a hemacytometer. This suspension is used to inoculate the buffer and the polymeric solutions to a spore concentration of 3-5E6 cfu/ml; 6. Addition of the inoculated buffer or polymer solution to each well. 7. Thorough mixing of the blends in each well; 8. Sampling for the time 0, 24 h, 48 h and 7 days reading is accomplished using a 96-well 300 μl polystyrene microplate. Tryptic Soy broth (TSB) is used for the bacterial studies and Malt (YM) broth buffered at pH 7.4 for fungal studies; 9. The microplates are incubated at 35° C. for bacteria and 30° C. for fungus, until the control samples show adequate growth; and 10. Data is recorded as the log reduction in microorganism concentration relative to the inoculum.

[2] = tested on: Pseudomonas aeruginosa ATCC #10145; assay: Efficacy (log kill) against Pseudomonas aeruginosa, 96-well assay block; format: cell-based
Description: as §1, §2, §3

Compound: ClC=CC[N+]12CN3CN(CN(C3)C1)C2.[Cl-] [CTAC, 1-(3-chloroallyl)-3,5,7-triaza-1-azoniaadamantane chloride]
- Log kill 24 h ([1]; Active Conc. 52.7 ppm): 0 log
- Log kill 48 h ([1]; Active Conc. 52.7 ppm): 0 log
- Log kill 7 days ([1]; Active Conc. 52.7 ppm): 1 log
- Log kill t0 ([1]; Active Conc. 52.7 ppm): 0 log
- Log kill 24 h ([1]; Active Conc. 79 ppm): 0 log
- Log kill 48 h ([1]; Active Conc. 79 ppm): 0 log
- Log kill 7 days ([1]; Active Conc. 79 ppm): 1 log
- Log kill t0 ([1]; Active Conc. 79 ppm): 0 log
- Log kill 24 h ([1]; Active Conc. 177.8 ppm): 0 log
- Log kill 48 h ([1]; Active Conc. 177.8 ppm): 0 log
- Log kill 7 days ([1]; Active Conc. 177.8 ppm): 4 log
- Log kill t0 ([1]; Active Conc. 177.8 ppm): 0 log
- Log kill 24 h ([1]; Active Conc. 400 ppm): 0 log
- Log kill 48 h ([1]; Active Conc. 400 ppm): 0 log
- Log kill 7 days ([1]; Active Conc. 400 ppm): 6 log
- Log kill t0 ([1]; Active Conc. 400 ppm): 0 log
- Log kill 24 h ([2]; Active Conc. 46.8 ppm): 0 log
- Log kill 48 h ([2]; Active Conc. 46.8 ppm): 0 log
- Log kill 7 days ([2]; Active Conc. 46.8 ppm): 0 log
- Log kill t0 ([2]; Active Conc. 46.8 ppm): 0 log
- Log kill 24 h ([2]; Active Conc. 158 ppm): 0 log
- Log kill 48 h ([2]; Active Conc. 158 ppm): 0.5 log
- Log kill 7 days ([2]; Active Conc. 158 ppm): 5 log
- Log kill t0 ([2]; Active Conc. 158 ppm): 0 log
- Log kill 24 h ([2]; Active Conc. 355.6 ppm): 1 log
- Log kill 48 h ([2]; Active Conc. 355.6 ppm): 4 log
- Log kill 7 days ([2]; Active Conc. 355.6 ppm): 6 log
- Log kill t0 ([2]; Active Conc. 355.6 ppm): 0 log
- Log kill 24 h ([2]; Active Conc. 800 ppm): 2.5 log
- Log kill 48 h ([2]; Active Conc. 800 ppm): 5 log
- Log kill 7 days ([2]; Active Conc. 800 ppm): 6 log
- Log kill t0 ([2]; Active Conc. 800 ppm): 0 log

Compound: Cc1ccc(S(=O)(=O)C(I)I)cc1 [DIMTS, diiodomethyl-para-tolylsulfone]
- Log kill 24 h ([1]; Active Conc. 189.7 ppm): 0 log
- Log kill 48 h ([1]; Active Conc. 189.7 ppm): 0 log
- Log kill 7 days ([1]; Active Conc. 189.7 ppm): 0 log
- Log kill t0 ([1]; Active Conc. 189.7 ppm): 0 log
- Log kill 24 h ([1]; Active Conc. 265.6 ppm): 0 log
- Log kill 48 h ([1]; Active Conc. 265.6 ppm): 0 log
- Log kill 7 days ([1]; Active Conc. 265.6 ppm): 0 log
- Log kill t0 ([1]; Active Conc. 265.6 ppm): 0 log
- Log kill 24 h ([1]; Active Conc. 1428.6 ppm): 0 log
- Log kill 48 h ([1]; Active Conc. 1428.6 ppm): 0 log
- Log kill 7 days ([1]; Active Conc. 1428.6 ppm): 2 log
- Log kill t0 ([1]; Active Conc. 1428.6 ppm): 0.5 log
- Log kill 24 h ([1]; Active Conc. 2000 ppm): 1 log
- Log kill 48 h ([1]; Active Conc. 2000 ppm): 1 log
- Log kill 7 days ([1]; Active Conc. 2000 ppm): 6 log
- Log kill t0 ([1]; Active Conc. 2000 ppm): 1 log
- Log kill 24 h ([2]; Active Conc. 414 ppm): 0 log
- Log kill 48 h ([2]; Active Conc. 414 ppm): 1 log
- Log kill 7 days ([2]; Active Conc. 414 ppm): 2 log
- Log kill t0 ([2]; Active Conc. 414 ppm): 0 log
- Log kill 24 h ([2]; Active Conc. 2000 ppm): 1 log
- Log kill 48 h ([2]; Active Conc. 2000 ppm): 1 log
- Log kill 7 days ([2]; Active Conc. 2000 ppm): 2 log
- Log kill t0 ([2]; Active Conc. 2000 ppm): 0 log

Compound: Oc1ccccc1-c1ccccc1 [OPP, ortho-phenylphenol]
- Log kill 24 h ([1]; Active Conc. 124 ppm): 2 log
- Log kill 48 h ([1]; Active Conc. 124 ppm): 2 log
- Log kill 7 days ([1]; Active Conc. 124 ppm): 6 log
- Log kill t0 ([1]; Active Conc. 124 ppm): 0 log
- Log kill 24 h ([1]; Active Conc. 182.2 ppm): 6 log
- Log kill 48 h ([1]; Active Conc. 182.2 ppm): 6 log
- Log kill 7 days ([1]; Active Conc. 182.2 ppm): 6 log
- Log kill t0 ([1]; Active Conc. 182.2 ppm): 1 log
- Log kill 24 h ([1]; Active Conc. 278.9 ppm): 3.5 log
- Log kill 48 h ([1]; Active Conc. 278.9 ppm): 3 log
- Log kill 7 days ([1]; Active Conc. 278.9 ppm): 4 log
- Log kill t0 ([1]; Active Conc. 278.9 ppm): 0.5 log
- Log kill 24 h ([1]; Active Conc. 418.4 ppm): 6 log
- Log kill 48 h ([1]; Active Conc. 418.4 ppm): 6 log
- Log kill 7 days ([1]; Active Conc. 418.4 ppm): 4 log
- Log kill t0 ([1]; Active Conc. 418.4 ppm): 6 log
- Log kill 24 h ([2]; Active Conc. 130.2 ppm): 0 log
- Log kill 48 h ([2]; Active Conc. 130.2 ppm): 1 log
- Log kill 7 days ([2]; Active Conc. 130.2 ppm): 1.5 log
- Log kill t0 ([2]; Active Conc. 130.2 ppm): 0 log
- Log kill 24 h ([2]; Active Conc. 182.2 ppm): 1.5 log
- Log kill 48 h ([2]; Active Conc. 182.2 ppm): 2.5 log
- Log kill 7 days ([2]; Active Conc. 182.2 ppm): 2.5 log
- Log kill t0 ([2]; Active Conc. 182.2 ppm): 1.5 log
- Log kill 24 h ([2]; Active Conc. 222.2 ppm): 4.5 log
- Log kill 48 h ([2]; Active Conc. 222.2 ppm): 3.5 log
- Log kill 7 days ([2]; Active Conc. 222.2 ppm): 4 log
- Log kill t0 ([2]; Active Conc. 222.2 ppm): 4 log

Compound: Oc1cc(Cl)ccc1Oc1ccc(Cl)cc1Cl [Triclosan, 2,4,4′-trichloro-2-hydroxyphenyl ether]
- contact time to achieve 3 log reduction in P. aeruginosa ([2]; 800 ppm of Triclosan): greater than 48 hours
- Log kill 24 h ([2]; Triclosan Conc. 105.3 ppm): 1 log
- Log kill 48 h ([2]; Triclosan Conc. 105.3 ppm): 1 log
- Log kill 7 days ([2]; Triclosan Conc. 105.3 ppm): 2 log
- Log kill t0 ([2]; Triclosan Conc. 105.3 ppm): 0 log
- Log kill 24 h ([2]; Triclosan Conc. 355.6 ppm): 1 log
- Log kill 48 h ([2]; Triclosan Conc. 355.6 ppm): 2 log
- Log kill 7 days ([2]; Triclosan Conc. 355.6 ppm): 2 log
- Log kill t0 ([2]; Triclosan Conc. 355.6 ppm): 1 log
- Log kill 24 h ([2]; Triclosan Conc. 800 ppm): 1 log
- Log kill 48 h ([2]; Triclosan Conc. 800 ppm): 2.5 log
- Log kill 7 days ([2]; Triclosan Conc. 800 ppm): 4 log
- Log kill t0 ([2]; Triclosan Conc. 800 ppm): 1 log

Compound: zinc pyrithione [ZPT]
- Log kill 24 h ([1]; Active Conc. 5.9 ppm): 0 log
- Log kill 48 h ([1]; Active Conc. 5.9 ppm): 1 log
- Log kill 7 days ([1]; Active Conc. 5.9 ppm): 1 log
- Log kill t0 ([1]; Active Conc. 5.9 ppm): 0 log
- Log kill 24 h ([1]; Active Conc. 29.6 ppm): 0 log
- Log kill 48 h ([1]; Active Conc. 29.6 ppm): 1 log
- Log kill 7 days ([1]; Active Conc. 29.6 ppm): 1 log
- Log kill t0 ([1]; Active Conc. 29.6 ppm): 0 log
- Log kill 24 h ([1]; Active Conc. 100 ppm): 0.5 log
- Log kill 48 h ([1]; Active Conc. 100 ppm): 1.5 log
- Log kill 7 days ([1]; Active Conc. 100 ppm): 2 log
- Log kill t0 ([1]; Active Conc. 100 ppm): 1 log
- control of P. aeruginosa before 48 h ([2]; 800 ppm active, before 48 h): no control
- Log kill 24 h ([2]; Active Conc. 46.8 ppm): 0 log
- Log kill 48 h ([2]; Active Conc. 46.8 ppm): 0 log
- Log kill 7 days ([2]; Active Conc. 46.8 ppm): 2 log
- Log kill t0 ([2]; Active Conc. 46.8 ppm): 0 log
- Log kill 24 h ([2]; Active Conc. 533.3 ppm): 0 log
- Log kill 48 h ([2]; Active Conc. 533.3 ppm): 1.5 log
- Log kill 7 days ([2]; Active Conc. 533.3 ppm): 3 log
- Log kill t0 ([2]; Active Conc. 533.3 ppm): 0 log
- Log kill 24 h ([2]; Active Conc. 800 ppm): 0 log
- Log kill 48 h ([2]; Active Conc. 800 ppm): 2 log
- Log kill t0 ([2]; Active Conc. 800 ppm): 0 log

Source: patent US20080249136A1, “Antimicrobial Composition and Method” (priority 2005, published 2008)
